“And” between values parts separate entries of the source, which are not always exact repeats. Identical values can stand only once. Counter-ions that a name gives are not always drawn. Like-named read-outs stand apart in the source and are kept apart here.
Tests used:
[1] = biological target: T1, 11beta-HSD1 enzyme (Homo sapiens, UniProt P28845); assay: SPA (Scintillation Proximity Assay) of 11beta-HSD1 inhibition, 384 well format; format: biochemical
T1 construct: made in house; host or cells: Saccharomyces cerevisiae
Procedure: The compounds according to the invention were the subject of pharmacological tests for determining their inhibitory activity on the 11beta-HSD1 enzyme which is an enzyme involved in lipid metabolism or glucose metabolism.
These tests consisted in measuring the in vitro inhibitory activity of the compounds of the invention by virtue of an SPA (Scintillation Proximity Assay) in 384 well format. The recombinant 11beta-HSD1 protein was produced in the yeast S. cerevisiae. The reaction was carried out by incubating the enzyme in the presence of ^3H-cortisone and NADPH, in the absence or in the presence of an increasing concentration of inhibitor. SPA beads coupled to an anti-mouse antibody, pre-incubated with an anti-cortisol antibody, made it possible to measure the amount of cortisol formed during the course of the reaction.
The inhibitory activity with respect to the 11beta-HSD1 enzyme is given by the concentration which inhibits 50% of the activity of 11beta-HSD1 (IC50).

[2] = biological target: T2, 11βHSD1 in the eyes (Homo sapiens, UniProt P28845); settings: normal volunteers; after seven days of treatment; cited from earlier work
T2 construct: The functional activity of 11βHSD1 in the eyes has been evaluated by studying the action of carbenoxolone in normal volunteers; host or cells: ocular tissue of human volunteers (in vivo)

[3] = recombinant 11beta-HSD1 produced in yeast S. cerevisiae, 3H-cortisone and NADPH, read-out: concentration which inhibits 50% of the activity of 11beta-HSD1 (IC50)

T1 sequence (P28845 whole entry, species assumed): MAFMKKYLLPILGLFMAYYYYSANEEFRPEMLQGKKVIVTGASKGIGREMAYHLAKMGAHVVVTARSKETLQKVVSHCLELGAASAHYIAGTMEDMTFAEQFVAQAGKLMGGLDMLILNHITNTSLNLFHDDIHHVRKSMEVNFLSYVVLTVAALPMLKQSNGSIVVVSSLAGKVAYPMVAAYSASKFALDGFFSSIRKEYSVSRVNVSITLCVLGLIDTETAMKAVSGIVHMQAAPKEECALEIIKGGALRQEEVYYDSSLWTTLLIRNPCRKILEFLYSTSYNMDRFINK
T2 sequence (P28845 whole entry): as the sequence (P28845 whole entry, species assumed) above

`O=C(N1CCCc2ccccc21)N1C2CCC1CC(c1ccccc1)C2` (centres unmarked) [Compound 7, (3,4-dihydro-2H-quinolin-1-yl)-(3-phenyl-8-azabicyclo-[3.2.1]oct-8-yl)methanone] gave an IC50 [1, 3] of 4 nM and a melting point of 133 to 134 °C.
`O=C(N1CCCc2ccccc21)N1C2C=C(c3cccc4[nH]ccc34)CC1CC2` (centres unmarked) [Compound 28, (3,4-dihydro-2H-quinolin-1-yl)-[3-(1H-indol-4-yl)-8-azabicyclo[3.2.1]oct-2-en-8-yl]methanone] gave an IC50 [1, 3] of 190 nM.
Work on `O=C(N1CCCc2ccccc21)N1C2CCC1CC(c1cccnc1)C2` (centres unmarked) [Compound 4, 1-[(3-pyridin-3-yl-8-azabicyclo[3.2.1]oct-8-yl)carbonyl]-1,2,3,4-tetrahydroquinoline Hydrochloride] yielded an IC50 [1] of 19 nM.
With `O=C(N1CCCc2ccccc21)N1C2CCC1CC(c1cccnc1)C2` (centres unmarked) (as salt: HCl) [Compound 4, 1-[(3-pyridin-3-yl-8-azabicyclo[3.2.1]oct-8-yl)carbonyl]-1,2,3,4-tetrahydroquinoline Hydrochloride] the melting point was 218 to 220 °C and 218 to 222 °C.
For `O=C(N1CCCc2ccccc21)N1C2CCC1CC(c1ccc(F)nc1)C2` (centres unmarked) (as salt: HCl), the melting point was 98 to 99 °C.
For `CC1(C)[C@@H](OC(=O)CCC(=O)O)CC[C@]2(C)[C@H]3C(=O)C=C4[C@@H]5C[C@@](C)(C(=O)O)CC[C@]5(C)CC[C@@]4(C)[C@]3(C)CC[C@@H]12` [carbenoxolone], the “IOP is reduced by” value [2] is listed as 18%.
`O=C(N1CCCc2ccccc21)N1C2C=C(c3cccnc3F)CC1CC2` (centres unmarked) [Compound 13, (3,4-dihydro-2H-quinolin-1-yl)-[3-(2-fluoropyridin-3-yl)-8-azabicyclo[3.2.1]oct-2-en-8-yl]methanone] showed an IC50 [1] of 122 nM.

Reference: US7897773B2, “Urea derivatives of tropane, their preparation and their therapeutic application” (Sanofi-Aventis, priority 2006, dated 2011)
